The results in this text go back to US10835468B2, “Particular pyridinedicarboxylic acid derivative/antioxidant combination” (L'OREAL, priority 2014, dated 2020).

Holding throughout (assay type): cell-based
Holding throughout (settings): 72 hours under normoxia

For one assay, the system named is BNIP3. The assay is described as follows: Expression of hypoxia-sensitive gene BNIP3 in primary human keratinocytes in culture (RT-qPCR). The method, then: (§1) The following protocol was followed: the tests were performed on human keratinocytes in culture, seeded on Greiner brand 48-well plates, coated with bovine collagen I. The plates were prepared according to the following procedure: the solution of bovine collagen I at 0.1 mg/ml was prepared by dilution in phosphate-buffered saline (PBS) of the bovine collagen I solution sold by the company Life Technologies. Each well was immersed with 1 ml of this dilution, which was left at the bottom of the wells for 1 hour at 37° C. At the end of the incubation, the collagen solution was removed and the wells were rinsed twice with 1 ml of PBS. The plates were then stored at 4° C. until the time of use. […] Following this culturing and treatment, the cell lawns were washed with phosphate-buffered saline (or PBS) and then lysed using a lysis buffer proposed in the kit from the supplier Qiagen. The RNAs were then extracted using the RNeasy isolation kit and the Qiacube robotic workstation, both sold by the company Qiagen, according to the manufacturer's instructions. The quantity and quality of RNAs were controlled using the LabChip® GX bioanalyser from Perkin-Elmer before performing reverse transcription (RT) using the Qiagen kit and according to the supplier's recommendations (QuantiTect reverse transcription kit). The cDNA obtained following the RT was then amplified by real-time quantitative PCR using a specific kit sold under the commercial brand LightCycler® 480 SYBR Green Master Mix by the company Roche (Cat. No. 14123920) and an LC480 thermocycler (Roche). The PCRs were performed in triplicate (n=3). The information relating to the primers used is presented below. […] EGNL3/[…] Quantitect Assay Primer; RPL13A/QT00089915/Hs_RPL13A-1-SG Quantitect Assay Primer, and the fluorescent probe of brand name SYBR Green sold by the company specified previously. The PCR was performed in three phases: • denaturing phase for 10 minutes at 95° C., • amplification phase which consists of 45 cycles comprising: • a step of denaturing for 30 seconds at 95° C., • a step of hybridization for 30 seconds at 60° C., and • a step of elongation at 72° C. for 30 seconds, • melting phase for ensuring the quality of the hybridizations. The incorporation of SYBR Green into the amplified DNA was measured continuously during the amplification cycles. These measurements make it possible to obtain curves of fluorescence intensity as a function of the PCR cycles and thus to evaluate the relative expression of each marker from the cycle thresholds (Ct), corresponding to the number of cycles required to appropriately detect a fluorescence level. For each marker and for each condition, the relative expression (RE) value was normalized relative to the expression of the reference gene RPL13. The expression of each gene is normalized by that of the “stable referent gene” (or “housekeeping gene” RPL13A, ribosomal gene). The results (“fold change” (Fc)) are expressed relative to the control. The genes used are hypoxia-sensitive (HIF-1 alpha signalling pathway) and are collated in Table 1 below. Three hypoxia-sensitive genes (BNIP3, EGLN3 and CA9) were used in the following examples. Three tests were performed according to the protocol described above for each gene and for each compound or combination.
In general terms: Quantitative PCR measures a nucleic acid by following its amplification.

A further assay has as its system EGLN3. The assay is described as follows: Expression of hypoxia-sensitive gene EGLN3 in primary human keratinocytes in culture (RT-qPCR). The method, then:
as §1

A further assay deals with CA9. The assay is described as follows: Expression of hypoxia-sensitive gene CA9 in primary human keratinocytes in culture (RT-qPCR). On the procedure: as §1

Structures are written as SMILES. “And” between values parts separate entries of the source, which are not always exact repeats. Equal values may be shown once.

On to `CCCCCCCCCCCCCCCC(=O)OC[C@H](O)[C@H]1OC(=O)C(O)=C1O` [Ascorbyl palmitate, ascorbyl palmitate], for which the “BNIP3 expression, fold change relative to the control, mean ± standard deviation” value in the assay with BNIP3 (compound 10 μM) was “(1.10 ± 0.22)”; with BNIP3 (compound 30 μM) it was “(1.15 ± 0.41)”. Further, the “BNIP3 expression, fold change relative to the control, single tests” value is 1.01 and 1.35 and 0.95 in the assay on BNIP3 (compound 10 μM); 1.04 and 1.6 and 0.81 in the assay on BNIP3 (compound 30 μM). Besides, the “EGLN3 expression, fold change relative to the control, mean ± standard deviation” value was “(1.35 ± 0.46)” in the assay with EGLN3 (compound 10 μM) and “(1.16 ± 0.81)” in the assay with EGLN3 (compound 30 μM). In addition, the results for the “CA9 expression, fold change relative to the control, mean ± standard deviation” value in the assay on CA9 (compound 10 μM) and in the assay on CA9 (compound 30 μM) were “(1.63 ± 0.38)” and “(0.99 ± 0.80)”, respectively. For the same compound, the “CA9 expression, fold change relative to the control, single tests” value in the assay with CA9 (compound 10 μM) is 1.65 and 2.00 and 1.25.

Turning to `O=C(O)[C@H]1O[C@@H](Oc2cc3oc(-c4ccccc4)cc(=O)c3c(O)c2O)[C@H](O)[C@@H](O)[C@@H]1O` [Baicalin, baicalin], in the assay on BNIP3 (compound 3 μM), the “BNIP3 expression, fold change relative to the control, mean ± standard deviation” value is listed as “(1.11 ± 0.15)”; the “BNIP3 expression, fold change relative to the control, single tests” value was 0.99 and 1.27 and 1.06. Further, in the assay on BNIP3 (compound 30 μM), the “BNIP3 expression, fold change relative to the control, mean ± standard deviation” value is on record as “(1.23 ± 0.15)”; the “BNIP3 expression, fold change relative to the control, single tests” value was 1.14 and 1.41 and 1.15. Moreover, in the assay on EGLN3 (compound 3 μM), the “EGLN3 expression, fold change relative to the control, mean ± standard deviation” value is “(1.19 ± 0.17)”; the “EGLN3 expression, fold change relative to the control, single tests” value was 1.00 and 1.33 and 1.25. Moreover, in the assay with EGLN3 (compound 30 μM), the “EGLN3 expression, fold change relative to the control, mean ± standard deviation” value is “(2.07 ± 0.39)”; the “EGLN3 expression, fold change relative to the control, single tests” value is 1.70 and 2.47 and 2.03. In the assay on CA9 (compound 3 μM), the “CA9 expression, fold change relative to the control, mean ± standard deviation” value was “(1.06 ± 0.28)”; the “CA9 expression, fold change relative to the control, single tests” value is 1.27 and 1.18 and 0.74. For the same compound, in the assay on CA9 (compound 30 μM), the “CA9 expression, fold change relative to the control, mean ± standard deviation” value is recorded as “(0.91 ± 0.27)”; the “CA9 expression, fold change relative to the control, single tests” value was 1.06 and 1.07 and 0.6.

Consider `CC1=NCC[C@@H](C(=O)O)N1` [Ectoin, ectoin], for which, in the assay on BNIP3 (compound 100 μM), the “BNIP3 expression, fold change relative to the control, mean ± standard deviation” value is listed as “(1.62 ± 0.27)”; the “BNIP3 expression, fold change relative to the control, single tests” value was 1.31 and 1.77. In addition, in the assay on BNIP3 (compound 300 μM), the “BNIP3 expression, fold change relative to the control, mean ± standard deviation” value was “(1.62 ± 0.2)”; the “BNIP3 expression, fold change relative to the control, single tests” value is 1.40 and 1.79 and 1.66. In the assay with EGLN3 (compound 100 μM), the “EGLN3 expression, fold change relative to the control, mean ± standard deviation” value is “(2.90 ± 0.50)”; the “EGLN3 expression, fold change relative to the control, single tests” value is 2.48 and 2.76 and 3.46. In the assay on EGLN3 (compound 300 μM), the “EGLN3 expression, fold change relative to the control, mean ± standard deviation” value is reported as “(2.62 ± 0.48)”; the “EGLN3 expression, fold change relative to the control, single tests” value is 2.07 and 2.82 and 2.97. In addition, in the assay with CA9 (compound 100 μM), the “CA9 expression, fold change relative to the control, mean ± standard deviation” value is on record as “(3.01 ± 0.64)”; the “CA9 expression, fold change relative to the control, single tests” value was 2.73 and 2.55 and 3.74. Besides, in the assay with CA9 (compound 300 μM), the “CA9 expression, fold change relative to the control, mean ± standard deviation” value is on record as “(2.57 ± 0.35)”; the “CA9 expression, fold change relative to the control, single tests” value is 2.23 and 2.54 and 2.93.

For the compound `Oc1ccc(C=Cc2cc(O)cc(O)c2)cc1` [Resveratrol, resveratrol], in the assay with BNIP3 (compound 0.3 μM), the “BNIP3 expression, fold change relative to the control, mean ± standard deviation” value is given as “(1.26 ± 0.24)”; the “BNIP3 expression, fold change relative to the control, single tests” value was 1.05 and 1.53 and 1.21. For the same compound, the “BNIP3 expression, fold change relative to the control, mean ± standard deviation” value in the assay on BNIP3 (compound 1 μM) is listed as “(2.01 ± 0.79)”. In the assay on EGLN3 (compound 0.3 μM), the “EGLN3 expression, fold change relative to the control, mean ± standard deviation” value is on record as “(1.92 ± 0.55)”; the “EGLN3 expression, fold change relative to the control, single tests” value was 1.31 and 2.36 and 2.10. The “EGLN3 expression, fold change relative to the control, mean ± standard deviation” value in the assay on EGLN3 (compound 1 μM) is “(3.65 ± 1.76)”. For the same compound, in the assay with CA9 (compound 0.3 μM), the “CA9 expression, fold change relative to the control, mean ± standard deviation” value is on record as “(1.63 ± 0.28)”; the “CA9 expression, fold change relative to the control, single tests” value was 1.82 and 1.75 and 1.31. In the assay with CA9 (compound 1 μM), the “CA9 expression, fold change relative to the control, mean ± standard deviation” value was “(2.02 ± 0.33)”; the “CA9 expression, fold change relative to the control, single tests” value was 2.34 and 1.97 and 1.75.

On to `CCOC(=O)c1ccnc(C(=O)OCC)c1` [Stemoxydine, diethyl 2,4-pyridinedicarboxylate], for which, in the assay with BNIP3 (compound 300 μM), the “BNIP3 expression, fold change relative to the control, mean ± standard deviation” value is recorded as “(1.76 ± 0.32)”; the “BNIP3 expression, fold change relative to the control, single tests” value is 1.51 and 1.65 and 2.13. For the same compound, in the assay on EGLN3 (compound 300 μM), the “EGLN3 expression, fold change relative to the control, mean ± standard deviation” value was “(2.60 ± 0.83)”; the “EGLN3 expression, fold change relative to the control, single tests” value is 2.15 and 2.09 and 3.56. Moreover, in the assay on CA9 (compound 300 μM), the “CA9 expression, fold change relative to the control, mean ± standard deviation” value was “(4.53 ± 1.15)”; the “CA9 expression, fold change relative to the control, single tests” value was 3.87 and 3.86 and 5.86.

On to `O=C1O[C@H]([C@@H](O)CO)C(O)=C1O` [Vitamin C, reference compound], for which the “BNIP3 expression, fold change relative to the control, mean ± standard deviation” value in the assay on BNIP3 (compound 10 μM) is reported as “(1.01 ± 0.12)”; with BNIP3 (compound 100 μM), “(1.12 ± 0.18)”. Further, the “BNIP3 expression, fold change relative to the control, single tests” value in the assay on BNIP3 (compound 10 μM) is 1.02 and 1.13 and 0.89; in the assay on BNIP3 (compound 100 μM), 0.98 and 1.32 and 1.07. For the same compound, the “EGLN3 expression, fold change relative to the control, mean ± standard deviation” value in the assay with EGLN3 (compound 10 μM) is “(1.07 ± 0.29)”; with EGLN3 (compound 100 μM), “(1.24 ± 0.24)”. Moreover, the “EGLN3 expression, fold change relative to the control, single tests” value in the assay on EGLN3 (compound 10 μM) was 0.92 and 1.41 and 0.89; with EGLN3 (compound 100 μM), 1.05 and 1.51 and 1.16. Also, the “CA9 expression, fold change relative to the control, mean ± standard deviation” value was “(1.02 ± 0.52)” in the assay on CA9 (compound 10 μM) and “(1.22 ± 0.42)” in the assay on CA9 (compound 100 μM).
